Experimental findings from ChEMBL document CHEMBL3832088, “DailyMed|setid=abbf31eb-9966-411a-9c5d-91025ff7a782 | ZARAH- drospirenone and ethinyl estradiol | Watson Pharma, Inc” are described below.

By Tmax is commonly meant the time from dosing to the highest level. The term Cmax denotes the highest concentration seen after dosing. Broadly, the half-life is the time in which the quantity being followed falls by half.

Molecules are shown by their SMILES. Values joined by “and” are separate entries in the source; they are usually repeats but may differ in a detail not shown here. Equal entries are not always repeated.

One series deals with Homo sapiens. As to the kind of experiment: (§1) Evaluation of pharmacokinetic parameters for Drosporine following multiple co-administration of 3 mg Drosporine tablets and […] ethinyl estradiol to 12 healthy female subjects. The class given is ADME, organism-based. Also on record: dose 3 mg, route oral. The following applies: in vivo, po, dosed compound id 30, dosed compound name DROSPIRENONE, gender female, regimen Once daily, study dosing duration 21 days, tissue Serum.

Series [1] is described as follows: as §1. Format: ADME, organism-based. Further details: dose 3 mg, route oral. The settings on record: human, in vivo, dose 3 mg, dosed compound id 30, dosed compound name DROSPIRENONE, gender female, regimen Once daily, route oral, study dosing duration 21 days, tissue Serum.
Setting [2] is: dose 3 mg, sampling time1 21 day.

Consider `C[C@]12CCC(=O)C=C1[C@@H]1C[C@@H]1[C@H]1[C@@H]3[C@@H]4C[C@@H]4[C@@]4(CCC(=O)O4)[C@@]3(C)CC[C@@H]12` [DROSPIRENONE], for which, in the series with Homo sapiens (setting [2]), the time to peak (Tmax) was 1.8 h and 1.6 h; the t1/2 came out at 31.4 h. Also, in the series with Homo sapiens (sampling time1 1 day), the “AUC(0-24)” value turned out to be 288 ng·h/mL and the Cmax was 36.9 ng/mL. Moreover, in the series with Homo sapiens (sampling time1 21 day), the “AUC(0-24)” value was 957 ng.hr/mL [middle of 4 runs] and the peak concentration (Cmax) is 84.2 ng/mL [middle of 4 runs]. Besides, in series [1] (sampling time1 1 day), the Tmax was 1.7 h. Further, the half-life in series [1] (sampling time1 21 day) is 32.5 h.
